In patent US20190099259A1, “Method for Treatment and Prevention of Biofilm Formation During Breast Augmentation Procedures” (Integrated Healing Technologies, LLC, priority 2017, published 2019):

Assays:
R. pickettii biofilm = experiment: biofilm assay on silicone breast implants; assay type: cell-based, Ralstonia Pickettii
Experimental: Biofilm assays were performed after 2 to 3 mL of 10^5 CFU/mL bacterial inoculum was added to each tube containing the respective implants and placed into a shaking incubator (250-300 rpm) at 30° C. for 24 hours, allowing for formation of biofilm on implants. After 24 hours' incubation, the implants having the biofilm were rinsed twice with Butterfields phosphate buffer. After the rinses, the implants were aseptically transferred to tubes containing 5 mL test articles for contact time points; 5 min and 2 hours. Postincubation, the implants were rinsed twice with Butterfields phosphate buffer, placed in 5 mL of sterile neutralizing buffer and sonicated at 50 to 60 Hz for 5 minutes. Tenfold serial dilutions were performed for each sample tube using neutralizing buffer as the diluent. A total of 100 μL of appropriate dilutions of each sample were plated on a nutrient agar plate in duplicates and incubated overnight. The colonies were counted postincubation. Data were evaluated by comparing the difference in CFU/mL for the implants and blank control at 5 min and 2 hours.

[1] = tested on: microbial cells and spore; conditions: cited from earlier work

Row | SMILES | effect in the biofilm model (R. pickettii biofilm; general statement) | potency as a germicide versus equivalent molar ratio of hypochlorite anion [1] | antibiofilm activity (R. pickettii biofilm; Biocell implant, 5 minutes) | antibiofilm activity (R. pickettii biofilm; Biocell implant, 2 hours) | antibiofilm activity (R. pickettii biofilm; Siltex implant, 5 minutes) | antibiofilm activity (R. pickettii biofilm; Siltex implant, 2 hours) | penetration of established biofilm (R. pickettii biofilm; after two hours) | antibiofilm activity (R. pickettii biofilm; smooth implant, 5 minutes) | antibiofilm activity (R. pickettii biofilm; smooth implant, 2 hours)
1 | OCl [Hypochlorous acid, hypochlorous acid] | effective at reducing Ralstonia Pickettii bacterial numbers | 80-100 times | – | – | – | – | – | – | –
2 | [H]/N=C(\N/C(=N/[H])NCCCCCCNC(=N)NC(=N)Nc1ccc(Cl)cc1)Nc1ccc(Cl)cc1 [Chlorhexidine gluconate] | – | – | did not have antibiofilm activity | did not have antibiofilm activity | did not have antibiofilm activity | did not have antibiofilm activity | unable to penetrate established biofilm | limited reduction | complete eradication
